# Measured values published in ChEMBL document CHEMBL1154053, “The structure-based design, synthesis, and biological evaluation of DNA-binding amide linked bisintercalating bisanthrapyrazole anticancer compounds” (Bioorg Med Chem, 2009).
# System: not listed separately
# Assay: Growth inhibition of human K/VP.5 cells by MTS method
# Type: functional
# Details: not given
row,SMILES,IC50
1,CN(CCNC(=O)CCC(=O)NCCN(C)CCn1nc2c3c(cccc31)C(=O)c1c(Cl)cccc1-2)CCn1nc2c3c(cccc31)C(=O)c1c(Cl)cccc1-2,1.6 µM
2,CN(CCNC(=O)CCCCC(=O)NCCN(C)CCn1nc2c3c(cccc31)C(=O)c1c(Cl)cccc1-2)CCn1nc2c3c(cccc31)C(=O)c1c(Cl)cccc1-2,3.3 µM
3,CN(CCNC(=O)CCCCCC(=O)NCCN(C)CCn1nc2c3c(cccc31)C(=O)c1c(Cl)cccc1-2)CCn1nc2c3c(cccc31)C(=O)c1c(Cl)cccc1-2,2.5 µM
4,CN(CCNC(=O)CC(=O)NCCN(C)CCn1nc2c3c(cccc31)C(=O)c1c(Cl)cccc1-2)CCn1nc2c3c(cccc31)C(=O)c1c(Cl)cccc1-2,2 µM
5,CN(CCO)CCn1nc2c3c(cccc31)C(=O)c1c(Cl)cccc1-2,1.9 µM
6,CN(CCN)CCn1nc2c3c(cccc31)C(=O)c1c(Cl)cccc1-2,1.5 µM
7,CN(CCNC(=O)CCCC(=O)NCCN(C)CCn1nc2c3c(cccc31)C(=O)c1c(Cl)cccc1-2)CCn1nc2c3c(cccc31)C(=O)c1c(Cl)cccc1-2,2.3 µM

# Molecular target: DNA topoisomerase 2-alpha (Homo sapiens, UniProt P11388)
# Sequence (P11388 whole entry): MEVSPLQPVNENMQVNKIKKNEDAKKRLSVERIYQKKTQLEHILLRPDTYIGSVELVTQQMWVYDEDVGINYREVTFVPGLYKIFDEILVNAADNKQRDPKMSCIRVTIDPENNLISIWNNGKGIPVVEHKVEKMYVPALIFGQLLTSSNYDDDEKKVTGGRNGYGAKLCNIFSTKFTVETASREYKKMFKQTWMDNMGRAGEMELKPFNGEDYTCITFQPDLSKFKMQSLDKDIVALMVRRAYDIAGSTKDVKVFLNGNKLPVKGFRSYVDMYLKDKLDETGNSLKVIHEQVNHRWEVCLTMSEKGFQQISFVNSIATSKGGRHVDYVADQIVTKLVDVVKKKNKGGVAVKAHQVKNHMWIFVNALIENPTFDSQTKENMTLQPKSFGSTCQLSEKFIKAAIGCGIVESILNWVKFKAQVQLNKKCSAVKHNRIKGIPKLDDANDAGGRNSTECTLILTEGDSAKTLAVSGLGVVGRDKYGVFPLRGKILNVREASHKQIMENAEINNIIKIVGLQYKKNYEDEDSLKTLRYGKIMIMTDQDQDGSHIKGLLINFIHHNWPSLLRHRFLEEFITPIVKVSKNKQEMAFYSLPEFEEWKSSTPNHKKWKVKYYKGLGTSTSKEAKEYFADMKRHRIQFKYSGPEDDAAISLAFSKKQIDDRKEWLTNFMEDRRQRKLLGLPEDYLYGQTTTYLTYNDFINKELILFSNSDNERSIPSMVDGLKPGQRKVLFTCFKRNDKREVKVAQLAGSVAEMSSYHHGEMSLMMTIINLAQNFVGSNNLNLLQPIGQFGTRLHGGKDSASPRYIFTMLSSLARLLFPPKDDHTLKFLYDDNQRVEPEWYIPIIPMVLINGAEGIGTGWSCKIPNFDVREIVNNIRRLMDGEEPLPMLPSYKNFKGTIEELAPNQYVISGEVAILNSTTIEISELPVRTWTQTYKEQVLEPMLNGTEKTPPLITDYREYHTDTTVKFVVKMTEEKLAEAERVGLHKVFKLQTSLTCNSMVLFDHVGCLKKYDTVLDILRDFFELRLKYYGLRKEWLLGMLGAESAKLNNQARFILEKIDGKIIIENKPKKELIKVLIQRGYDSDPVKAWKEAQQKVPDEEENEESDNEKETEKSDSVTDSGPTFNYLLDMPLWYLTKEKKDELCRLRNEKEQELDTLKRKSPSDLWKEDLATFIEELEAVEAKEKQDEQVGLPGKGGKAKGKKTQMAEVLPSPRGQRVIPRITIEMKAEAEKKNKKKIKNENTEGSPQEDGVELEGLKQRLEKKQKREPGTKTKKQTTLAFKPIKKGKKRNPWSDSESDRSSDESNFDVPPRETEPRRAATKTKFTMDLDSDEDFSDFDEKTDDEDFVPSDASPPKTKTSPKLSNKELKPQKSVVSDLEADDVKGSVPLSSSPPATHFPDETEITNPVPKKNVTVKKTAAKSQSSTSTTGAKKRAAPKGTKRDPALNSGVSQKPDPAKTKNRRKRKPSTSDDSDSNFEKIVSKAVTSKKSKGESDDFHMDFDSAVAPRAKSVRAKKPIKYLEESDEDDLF
# Assay: Inhibition of decatenation activity of human topoisomerase 2alpha
# Details: not given
row,SMILES,IC50
1,CN(CCNC(=O)CCC(=O)NCCN(C)CCn1nc2c3c(cccc31)C(=O)c1c(Cl)cccc1-2)CCn1nc2c3c(cccc31)C(=O)c1c(Cl)cccc1-2,7 µM
2,CN(CCNC(=O)CCCCC(=O)NCCN(C)CCn1nc2c3c(cccc31)C(=O)c1c(Cl)cccc1-2)CCn1nc2c3c(cccc31)C(=O)c1c(Cl)cccc1-2,48 µM
3,CN(CCN=[N+]=[N-])CCn1nc2c3c(cccc31)C(=O)c1c(Cl)cccc1-2,25 µM
4,CN(CCNC(=O)CCCCCC(=O)NCCN(C)CCn1nc2c3c(cccc31)C(=O)c1c(Cl)cccc1-2)CCn1nc2c3c(cccc31)C(=O)c1c(Cl)cccc1-2,22 µM
5,CN(CCNC(=O)CC(=O)NCCN(C)CCn1nc2c3c(cccc31)C(=O)c1c(Cl)cccc1-2)CCn1nc2c3c(cccc31)C(=O)c1c(Cl)cccc1-2,42 µM
6,CN(CCO)CCn1nc2c3c(cccc31)C(=O)c1c(Cl)cccc1-2,10 µM
7,CN(CCN)CCn1nc2c3c(cccc31)C(=O)c1c(Cl)cccc1-2,18 µM
8,CN(CCNC(=O)CCCC(=O)NCCN(C)CCn1nc2c3c(cccc31)C(=O)c1c(Cl)cccc1-2)CCn1nc2c3c(cccc31)C(=O)c1c(Cl)cccc1-2,25 µM

# System: K562
# Assay: Growth inhibition of human K562 cells by MTS method
# Type: functional, cell-based
# Details: not given
row,SMILES,IC50
1,CN(CCNC(=O)CCC(=O)NCCN(C)CCn1nc2c3c(cccc31)C(=O)c1c(Cl)cccc1-2)CCn1nc2c3c(cccc31)C(=O)c1c(Cl)cccc1-2,3.5 µM
2,CN(CCNC(=O)CCCCC(=O)NCCN(C)CCn1nc2c3c(cccc31)C(=O)c1c(Cl)cccc1-2)CCn1nc2c3c(cccc31)C(=O)c1c(Cl)cccc1-2,6.7 µM
3,CN(CCN=[N+]=[N-])CCn1nc2c3c(cccc31)C(=O)c1c(Cl)cccc1-2,3.6 µM
4,CN(CCNC(=O)CCCCCC(=O)NCCN(C)CCn1nc2c3c(cccc31)C(=O)c1c(Cl)cccc1-2)CCn1nc2c3c(cccc31)C(=O)c1c(Cl)cccc1-2,4.6 µM
5,CN(CCNC(=O)CC(=O)NCCN(C)CCn1nc2c3c(cccc31)C(=O)c1c(Cl)cccc1-2)CCn1nc2c3c(cccc31)C(=O)c1c(Cl)cccc1-2,2.6 µM
6,CN(CCO)CCn1nc2c3c(cccc31)C(=O)c1c(Cl)cccc1-2,3.1 µM
7,CN(CCN)CCn1nc2c3c(cccc31)C(=O)c1c(Cl)cccc1-2,3.6 µM
8,CN(CCNC(=O)CCCC(=O)NCCN(C)CCn1nc2c3c(cccc31)C(=O)c1c(Cl)cccc1-2)CCn1nc2c3c(cccc31)C(=O)c1c(Cl)cccc1-2,5.7 µM

# System: Calf thymus DNA
# Assay: Binding affinity to calf thymus DNA assessed as change in melting temperature at 2 uM by thermal denaturation assay
# Type: nucleic-acid assay
# Details: Bos taurus
row,SMILES,ΔTm
1,CN(CCNC(=O)CCC(=O)NCCN(C)CCn1nc2c3c(cccc31)C(=O)c1c(Cl)cccc1-2)CCn1nc2c3c(cccc31)C(=O)c1c(Cl)cccc1-2,21.8 °C
2,CN(CCNC(=O)CCCCC(=O)NCCN(C)CCn1nc2c3c(cccc31)C(=O)c1c(Cl)cccc1-2)CCn1nc2c3c(cccc31)C(=O)c1c(Cl)cccc1-2,6.8 °C
3,CN(CCN=[N+]=[N-])CCn1nc2c3c(cccc31)C(=O)c1c(Cl)cccc1-2,1.1 °C
4,CN(CCNC(=O)CCCCCC(=O)NCCN(C)CCn1nc2c3c(cccc31)C(=O)c1c(Cl)cccc1-2)CCn1nc2c3c(cccc31)C(=O)c1c(Cl)cccc1-2,4.8 °C
5,CN(CCNC(=O)CC(=O)NCCN(C)CCn1nc2c3c(cccc31)C(=O)c1c(Cl)cccc1-2)CCn1nc2c3c(cccc31)C(=O)c1c(Cl)cccc1-2,9.6 °C
6,CN(CCO)CCn1nc2c3c(cccc31)C(=O)c1c(Cl)cccc1-2,5.4 °C
7,COc1cccc2c1C(=O)c1c(O)c3c(c(O)c1C2=O)C[C@@](O)(C(=O)CO)C[C@@H]3O[C@H]1C[C@H](N)[C@H](O)[C@H](C)O1,17.8 °C
8,CN(CCN)CCn1nc2c3c(cccc31)C(=O)c1c(Cl)cccc1-2,10.2 °C
9,CN(CCNC(=O)CCCC(=O)NCCN(C)CCn1nc2c3c(cccc31)C(=O)c1c(Cl)cccc1-2)CCn1nc2c3c(cccc31)C(=O)c1c(Cl)cccc1-2,17.8 °C

# System: K562
# Assay: Resistance factor, ratio of IC50 for human K/VP.5 cells to IC50 for human K562 cells
# Type: functional
# Details: not given
row,SMILES,Ratio IC50
1,CN(CCNC(=O)CCC(=O)NCCN(C)CCn1nc2c3c(cccc31)C(=O)c1c(Cl)cccc1-2)CCn1nc2c3c(cccc31)C(=O)c1c(Cl)cccc1-2,0.44
2,CN(CCNC(=O)CCCCC(=O)NCCN(C)CCn1nc2c3c(cccc31)C(=O)c1c(Cl)cccc1-2)CCn1nc2c3c(cccc31)C(=O)c1c(Cl)cccc1-2,0.48
3,CN(CCNC(=O)CCCCCC(=O)NCCN(C)CCn1nc2c3c(cccc31)C(=O)c1c(Cl)cccc1-2)CCn1nc2c3c(cccc31)C(=O)c1c(Cl)cccc1-2,0.55
4,CN(CCNC(=O)CC(=O)NCCN(C)CCn1nc2c3c(cccc31)C(=O)c1c(Cl)cccc1-2)CCn1nc2c3c(cccc31)C(=O)c1c(Cl)cccc1-2,0.77
5,CN(CCO)CCn1nc2c3c(cccc31)C(=O)c1c(Cl)cccc1-2,0.63
6,CN(CCN)CCn1nc2c3c(cccc31)C(=O)c1c(Cl)cccc1-2,0.43
7,CN(CCNC(=O)CCCC(=O)NCCN(C)CCn1nc2c3c(cccc31)C(=O)c1c(Cl)cccc1-2)CCn1nc2c3c(cccc31)C(=O)c1c(Cl)cccc1-2,0.39
